Measurements published in patent publication US11951171B2, “Polypeptide EXP and its drug delivery system as well as extracellular vesicle extraction” (TIANJIN MEDICAL UNIVERSITY, priority 2019, dated 2024).

What was measured:
[1] = tested on: exosome from differentiated muscle cells C2C12(dC2C12); experiment: Flow cytometry binding of FAM-labeled peptides to exosome; set-up: species or system murine
Protocol: The FAM-labeled peptides EXP, CP05, 39880, 39881 were respectively co-incubated with exosome from differentiated muscle cells C2C12(dC2C12), and the binding efficiency of different polypeptides with exosome was detected by flow cytometry.
Each sign in the figure represents the detection results of the following sequences: EXO represents exosomes derived from murine myotubes; CP05 represents the polypeptide which is recorded in the prior art Chinese patent No. CN201510520565.7; EXP represents the polypeptide of the present invention (SEQ ID NO.1). 39880 and 399881 respectively represent two other variants of CP05. (A) Flow cytometry to detected the binding efficiency of different peptides with exosomes. […] (B) Flow cytometry to detected the capacity to enter cells of different peptides mediated by exosome. The equivalent amount FAM-labeled polypeptides were incubated with exosome derived from dC2C12 and added into C2C12 cells, and the capacity of enter cells was detected 24 hours later. It's shown by the results that 65.6% of EXO-EXP entered cells whose capacity is highest. (C) Quantitative analysis of different peptides entering cells mediated by exosome. […] (D) the binding efficiency of different amount gradients of CP05 and EXP to the equivalent amount of exosomes was detected by Flow cytometry to. Different amounts of EXP and CP05(0.03 μg, […], 0.3 μg) were co-incubated with exosomes (10 μg), and their binding efficiency was compared by flow cytometry.
1.1 Flow cytometry is used to detect the binding capacity of EXP and other peptides to exosome. • (1) FAM-labeled CP05 and other peptides respectively with amount of […] were mixed with exosome from different source like dC2C12, CDC and serum respectively with amount of […], and DPBS is used to make up a deficiency to 200 μl in volume with. • (2) The mixture prepared as described in (1) was incubated at 4° C. for 2-4 hrs under rotation in vertical shaker. • (3) the binding efficiency was detected with flow cytometry.

exosomes = experiment: Competitive binding of CP05 and EXP to exosomes (flow cytometry); conditions: peptide alone with exosomes (FIG. 3A, first line)
Protocol: AF750 (APC-Cy7)-labeled CP05 and FAM-labeled CP05 or EXP were co-incubated with exosomes at ratios of 1:1 or 1:5 (mass ratio), and the binding efficiency was detected with flow cytometry. It's shown by the results that when EXP and CP05 were incubated with exosomes at the same time, EXP could compete with CP05 to combine with exosomes, thus reducing the binding efficiency of CP05 and exosomes. (A) Flow cytometry to detect the binding efficiency of EXP or CP05 to exosomes. EXO was used as negative control; EXOCP05 is the binding efficiency of CP05 (FAM, af750) separately labeled by different fluorescence labeling with exosomes. EXOEXP is the binding efficiency of FAM labeled EXP andexosomes. 1:1, 1:5, 1:10 means different mass ratios of AF750 and FAM-EXP/FAM-CP05 are respectively as 1:1, 1:5, 1:10. It's shown by the results of flow cytometryto that the binding efficiency of CP05 alone with EXO was about 70%, while that of EXP and exosomes was 91.5% (flow cytometry to chart: the first line). […] However, it's found by comparing different fluorescence CP05 molecules (flow cytometry to chart: the third line) that, the binding efficiency of EXOCP05 (AF750) remained unchanged with increasing the mass ratio of FAM-CP05. […] Different fluorescence-labeled CP05 (APC-Cy7, FAM) were co-incubated with exosomes, their binding efficiency is detected with flow cytometry. […]

CD63 = biological target: T1, CD63 (Mus musculus, UniProt P41731); experiment: EXP target detection by co-immunoprecipitation, silver staining and Western blot; type: binding; conditions: Flag-tagged peptide on anti-flag beads, C2C12 lysate; band about 45 kD and 25 kD
T1 construct: endogenous in cells; host or cells: C2C12 cells (lysate)
T1 sequence (P41731 1-238): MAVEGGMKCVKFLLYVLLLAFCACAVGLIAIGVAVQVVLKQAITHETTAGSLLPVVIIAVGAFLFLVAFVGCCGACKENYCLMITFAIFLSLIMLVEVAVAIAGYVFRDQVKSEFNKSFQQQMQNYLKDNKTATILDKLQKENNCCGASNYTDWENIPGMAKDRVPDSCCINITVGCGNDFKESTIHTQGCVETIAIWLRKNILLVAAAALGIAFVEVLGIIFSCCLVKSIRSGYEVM
Protocol: (A) Silver staining and Western blot were used to detect the interest proteins band obtained by co-immunoprecipitation. Flag-tagged CP05 or EXP was incubated with anti-flag coated beads, and followed by co-incubation with cell lysates after removing the free peptides which were unconjugated with beads. The specific enriched proteins in the cell protein lysate were fished by using the polypeptide. Then the size distribution of the fishing strip was detected by silver staining, and the expression of different Tetraspanin family proteins in the fishing strip was detected by Western blot. […] (B)Immunoprecipitation was used to catch the target of EXP. The results are the same as above. […]

Q: Which results are given for CRHKMWTVKSRL (EXP)?
A: binding efficiency with exosome under different amount gradients, compared with CP05 ([1]; 0.03 μg, 0.06 g, 0.3 μg peptide co-incubated with exosomes (10 μg), FIG. 1D): all higher than that of CP05; binding efficiency to exosomes ([1]; FAM-labeled peptide co-incubated with exosome from dC2C12, flow cytometry (FIG. 1A)): up to 95.5%; binding efficiency of EXP with exosomes compared to CP05 ([1]; under the same conditions): about 2 times; binding efficiency of peptide alone with EXO (exosomes): 91.5%; protein band fished from cell lysate, confirmed by Western blot as CD63 (CD63): distinct protein bands
